This is an account of results in ChEMBL document CHEMBL1136053, “Development of new hydrogen-bond descriptors and their application to comparative molecular field analyses” (J Med Chem, 2002).

Molecules are shown by their SMILES. Non-standard residues stand in square brackets, D forms with d. Residues, ends and D or L forms follow the SMILES beside them. ξ: configuration not given here. *: point of attachment. ξF = NC(Cc1ccccc1)C(=O)O; Cbz = O=C(OCc1ccccc1)*; NHOH = ON*

For this assay, the target named is T1, Thermolysin (Bacillus thermoproteolyticus, UniProt P00800).
T1 sequence (P00800 whole entry): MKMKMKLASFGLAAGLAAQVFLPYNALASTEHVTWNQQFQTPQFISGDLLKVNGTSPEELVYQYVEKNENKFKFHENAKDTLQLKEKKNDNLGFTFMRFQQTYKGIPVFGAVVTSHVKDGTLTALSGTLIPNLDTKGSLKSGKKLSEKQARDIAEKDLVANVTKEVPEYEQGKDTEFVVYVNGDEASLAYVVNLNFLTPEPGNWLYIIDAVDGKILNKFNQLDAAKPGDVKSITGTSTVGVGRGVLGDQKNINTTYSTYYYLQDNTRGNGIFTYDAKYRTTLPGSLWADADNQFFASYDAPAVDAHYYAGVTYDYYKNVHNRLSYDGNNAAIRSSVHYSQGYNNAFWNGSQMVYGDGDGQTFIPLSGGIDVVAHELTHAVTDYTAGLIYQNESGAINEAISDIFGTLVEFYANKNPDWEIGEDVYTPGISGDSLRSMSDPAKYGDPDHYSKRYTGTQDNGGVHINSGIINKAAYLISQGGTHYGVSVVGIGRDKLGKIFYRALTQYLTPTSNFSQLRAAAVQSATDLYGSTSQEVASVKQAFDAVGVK
The assay can be described thus: pKi value expresses binding affinity against thermolysin pKi = -logKi (where Ki is in mol/L).
In general, Ki refers to the dissociation constant of the complex between target and ligand, obtained from inhibition or displacement. A lower Ki goes with tighter binding. Regarding `CC(C)CC(NC(CCNC(=O)C(C)NC(=O)OCc1ccccc1)C(=O)O)C(=O)NC(Cc1ccccc1)C(=O)O` (configuration not stated), the Ki is 0.851 µM. In other words, the sub-micromolar range. Same read-out and setting: under `C[C@H](NC(=O)[C@@H](CS)Cc1ccccc1)C(=O)NCC(N)=O` stands 0.759 µM; under `CCCCCCP(=O)(O)OC(CC(C)C)C(=O)NC(Cc1c[nH]c2ccccc12)C(=O)NC` (configuration not stated), 1.45 µM.

`CC(C)C[C@H](NC(=O)OCc1ccccc1)C(=O)NCC(N)=O` (Cbz-Leu-Gly-NH2) had a Ki of 3090 µM. Molecule `CC(C)CC(NP(=O)(O)[C@@H](Cc1ccccc1)NC(=O)OCc1ccccc1)C(=O)NC(C)C(=O)O` (some centres not stated) showed a Ki of 0.479 µM. `CC(C)CC(OP(=O)(O)CNC(=O)OCc1ccccc1)C(=O)NCC(=O)O` (configuration not stated) showed a Ki of 229 µM. The molecule `CC(C)CC(OP(=O)(O)C(CC(C)C)NC(=O)OCc1ccccc1)C(=O)NC(C)C(=O)O` (configuration not stated) gave a Ki of 0.676 µM. For `CC(=O)CC(=O)N[C@@H](Cc1ccccc1)C(=O)N[C@@H](C)C(=O)NCC(N)=O`, the Ki is 3090 µM. This Ki lies about 4600-fold higher than the previous one. For the molecule `CC(C)CC(OP(=O)(O)CNC(=O)OCc1ccccc1)C(N)=O` (configuration not stated), the Ki was 661 µM. `CC(C)CC(NC(=O)C(CC(C)C)NP(=O)(O)CNC(=O)OCc1ccccc1)C(=O)O` (configuration not stated) showed a Ki of 0.00912 µM.

For `O=C(O)CC(=O)NC(CS)Cc1ccccc1` (configuration not stated), the affinity corresponds to a Ki of 2.29 µM.

`CC(C)CC(CP(=O)(O)CNC(=O)OCc1ccccc1)C(=O)NC(Cc1ccccc1)C(=O)O` (configuration not stated) had a Ki of 0.0661 µM. `O=C(O)C(Cc1ccccc1)NP(=O)(O)O` (configuration not stated) had a Ki of 72.4 µM.

Consider `CC(NC(=O)C(Cc1ccccc1)NP(=O)(O)O)C(=O)NCC(N)=O` (configuration not stated), for which affinity was put at a Ki of 2.57 µM. On to `CC(C)CC(OP(=O)(O)CNC(=O)OCc1ccccc1)C(=O)NC(Cc1ccccc1)C(=O)O` (configuration not stated), for which the affinity, expressed as Ki, was 53.7 µM. `CC(C)CC(OP(=O)(O)[C@@H](Cc1ccccc1)NC(=O)OCc1ccccc1)C(=O)NC(C)C(=O)O` (some centres not stated) gave a Ki of 30.2 µM.

For the molecule `NC(=O)CNC(=O)C(Cc1ccccc1)NC(=O)OCc1ccccc1` (configuration not stated) (Cbz-[ξF]-Gly-NH2), the affinity, expressed as Ki, was 347 µM.

For `C[C@H](NC(=O)[C@H](Cc1ccccc1)NS(=O)(=O)O)C(=O)NCC(N)=O`, affinity was put at a Ki of 4270 µM. The same measure, in the same setting: under `CC(NC(=O)C(Cc1ccccc1)C(=O)NO)C(=O)NCC(=O)Nc1ccc([N+](=O)[O-])cc1` (configuration not stated) stands 0.427 µM; under `CC(C)CC(NC(=O)NNC(=O)OCc1ccccc1)C(N)=O` (configuration not stated), 380 µM; under `C[C@H](NC(=O)[C@H](Cc1ccccc1)C(=O)NO)C(=O)NCC(N)=O`, 0.661 µM. Turning to `CC(C)CC(NP(=O)(O)O)C(=O)NC(Cc1ccccc1)C(=O)O` (configuration not stated), the Ki was 0.0191 µM. Compared with the last molecule, the Ki is about 35-fold lower. In turn, `CC(C)C[C@H](NC(=O)CNC(=O)OCc1ccccc1)C(=O)NO` showed a Ki of 12.9 µM.

`CC(C)C[C@H](NC(=O)CNC(=O)CNC(=O)OCc1ccccc1)C(=O)NO`: the affinity, expressed as Ki, was 38.9 µM. This Ki is about 3-fold higher than that of the molecule before. As to `CC(C)CC(OP(=O)(O)C(Cc1ccccc1)NC(=O)OCc1ccccc1)C(=O)NC(C)C(=O)O` (configuration not stated), the Ki was 0.0447 µM. This Ki lies about 870-fold lower than the previous one. The same measure, in the same setting: under `CCCCCCP(=O)(O)CC(CC(C)C)C(=O)NC(Cc1c[nH]c2ccccc12)C(=O)NC` (configuration not stated) stands 0.0525 µM; under `CC(=O)N(O)[C@@H](CC(C)C)C(=O)N[C@@H](C)C(=O)NCC(N)=O`, 3390 µM. Turning to `CC(C)CC(NP(=O)(O)OC1OC(C)C(O)C(O)C1O)C(=O)NC(Cc1c[nH]c2ccccc12)C(=O)O` (configuration not stated), the affinity, expressed as Ki, was 0.0282 µM.

As for `C[C@H](C(=O)NO)C(=O)N[C@@H](C)C(=O)NCC(N)=O`, the Ki is 1100 µM.

In turn, `CC(C)CC(CP(=O)(O)CNC(=O)OCc1ccccc1)C(=O)NC(C)C(=O)O` (configuration not stated) showed a Ki of 0.0186 µM.

For the molecule `CC(C)CC(OP(=O)(O)CNC(=O)OCc1ccccc1)C(=O)NC(C)C(=O)O` (configuration not stated), the Ki was 12.9 µM.

In the case of `CC(C)CC(NP(=O)(O)CNC(=O)OCc1ccccc1)C(=O)NC(C)C(=O)O` (configuration not stated), affinity was put at a Ki of 0.0166 µM. In turn, `CC(C)CC(NC(=O)CNC(=O)OCc1ccccc1)C(=O)N(C)O` (configuration not stated) had a Ki of 2240 µM.

In the case of `CC(C)CC(CP(=O)(O)CNC(=O)OCc1ccccc1)C(=O)NC(CC(C)C)C(=O)O` (configuration not stated), the Ki was 0.182 µM. Turning to `O=C(CNC(=O)CNC(=O)OCc1ccccc1)NO` (Cbz-Gly-Gly-{NHOH}), affinity was put at a Ki of 933 µM. Compared with the last molecule, the Ki is about 5100-fold higher. `CC(C)CC(NC(=O)NNC(=O)OCc1ccccc1)C(=O)NO` (configuration not stated) gave a Ki of 2.69 µM. This Ki is about 350-fold lower than that of the molecule before. Take `CC(C)CC(NP(=O)(O)CNC(=O)OCc1ccccc1)C(=O)NC(Cc1ccccc1)C(=O)O` (configuration not stated): the affinity, expressed as Ki, was 0.0759 µM. Still for that read-out and setting: the result for `C[C@H](NC(=O)[C@H](Cc1ccccc1)C(=O)O)C(=O)NCC(N)=O` reads 417 µM. The same measure, in the same setting: the result for `O=C(NC(Cc1ccccc1)C(=O)O)OCc1ccccc1` (configuration not stated) reads 513 µM; that for `C[C@H](NC(=O)[C@H](Cc1ccccc1)NC(=O)CO)C(=O)NCC(N)=O`, 2880 µM.

`CC(C)C[C@H](NC(CCc1ccccc1)C(=O)O)C(=O)N[C@@H](Cc1c[nH]c2ccccc12)C(=O)O` (some centres not stated) showed a Ki of 0.0339 µM. Compared with the last molecule, the Ki is about 85000-fold lower.

Molecule `C[C@H](NC(=O)[C@H](Cc1ccccc1)C(=O)NO)C(=O)NCC(=O)O` had a Ki of 0.661 µM.

In the case of `CC(C)CC(CP(=O)(O)CNC(=O)OCc1ccccc1)C(N)=O` (configuration not stated), the Ki was 1.41 µM. In the case of `CC(C)C[C@H](C(=O)NO)C(=O)N[C@@H](C)C(=O)NCC(N)=O`, the Ki was 0.479 µM. Still for that read-out and setting: the result for `O=C(CCc1ccccc1)NC(Cc1ccccc1)C(=O)O` (configuration not stated) reads 1620 µM.

With `CC(C)CC(NC(CCNC(=O)CNC(=O)OCc1ccccc1)C(=O)O)C(=O)NC(Cc1ccccc1)C(=O)O` (configuration not stated), the Ki is 0.407 µM. Molecule `CC(C)C[C@@H](C(=O)N[C@@H](C)C(=O)NCC(N)=O)N(O)C=O` gave a Ki of 3390 µM. This Ki is about 8300-fold higher than that of the molecule before.

As to `CC(C)CC(NC(=O)C(CC(C)C)OP(=O)(O)CNC(=O)OCc1ccccc1)C(=O)O` (configuration not stated), affinity was put at a Ki of 8.91 µM. Against the preceding molecule, the Ki is about 380-fold lower. In the case of `CC(C)CC(NP(=O)(O)O)C(N)=O` (configuration not stated), the affinity, expressed as Ki, was 79.4 µM. In turn, `CC(C)CC(OP(=O)(O)[C@@H](CC(C)C)NC(=O)OCc1ccccc1)C(=O)NC(C)C(=O)O` (some centres not stated) showed a Ki of 41.7 µM. As for `CC(C)CC(NP(=O)(O)CNC(=O)OCc1ccccc1)C(=O)NCC(=O)O` (configuration not stated), the affinity, expressed as Ki, was 0.269 µM.

`NC(=O)CNC(=O)C(Cc1ccc(O)cc1)NC(=O)OCc1ccccc1` (configuration not stated) gave a Ki of 219 µM. The same measure, in the same setting: under `CC(C)CC(NC(CCc1cccc(CN)c1)C(=O)O)C(=O)NC(Cc1ccccc1)C(=O)O` (configuration not stated) stands 1.7 µM; under `CCCCCCP(=O)(O)NC(CC(C)C)C(=O)NC(Cc1c[nH]c2ccccc12)C(=O)NC` (configuration not stated), 0.00151 µM; under `C[C@H](NC(=O)[C@H](C)NP(=O)(O)O)C(=O)O`, 87.1 µM.

On to `CC(C)CC(OP(=O)(O)[C@@H](C)NC(=O)OCc1ccccc1)C(=O)NC(C)C(=O)O` (some centres not stated), for which the Ki is 24 µM. The molecule `C[C@H](NC(=O)[C@H](Cc1ccccc1)NP(=O)(O)S)C(=O)NCC(N)=O` (some centres not stated) gave a Ki of 6.92 µM. In turn, `CCCCC(NC(CC(C)C)C(=O)NC(Cc1ccccc1)C(=O)O)C(=O)O` (configuration not stated) had a Ki of 3800 µM.

In turn, `CC(C)C[C@H](NC(=O)CNC(=O)OCc1ccccc1)C(N)=O` had a Ki of 20900 µM.

On to `CC(C)CC(NP(=O)(O)C(Cc1ccccc1)NC(=O)OCc1ccccc1)C(=O)NC(C)C(=O)O` (configuration not stated), for which affinity was put at a Ki of 6.76e-05 µM. This lies in the picomolar range. `CC(C)CC(NC(CCNC(=O)C(Cc1ccccc1)NC(=O)OCc1ccccc1)C(=O)O)C(=O)NC(Cc1ccccc1)C(=O)O` (configuration not stated) had a Ki of 0.219 µM.

With `CC(C)CC(NP(=O)(O)CNC(=O)OCc1ccccc1)C(N)=O` (configuration not stated), the Ki is 0.759 µM. For the molecule `CC(C)C[C@@H](NC(=O)CNC(=O)OCc1ccccc1)C(=O)NO`, the affinity corresponds to a Ki of 47.9 µM. On the same count and under the same terms, the result for `CC(C)CC(NC(C)C(=O)O)C(=O)NC(Cc1ccccc1)C(=O)O` (configuration not stated) reads 2.82 µM; that for `CC(C)CC(CP(=O)(O)CNC(=O)OCc1ccccc1)C(=O)NCC(=O)O` (configuration not stated), 0.302 µM. In turn, `CC(C)CC(N)C(=O)NO` (configuration not stated) showed a Ki of 191 µM.

In turn, `CCOC(=O)C(Cc1ccccc1)C(=O)NO` (configuration not stated) showed a Ki of 20 µM. On the same count and under the same terms, the result for `CC(C)CC(NC(CCc1ccccc1)C(=O)O)C(=O)NC(Cc1ccccc1)C(=O)O` (configuration not stated) reads 0.603 µM. As for `CC[C@H](C)[C@H](NP(=O)(O)O)C(=O)N[C@@H](C)C(=O)O`, the Ki is 0.363 µM. What is called pKi is the Ki on a negative log10 scale, so that one unit is a factor of ten. Take `CC(C)C[C@@H](NC(=O)CNC(=O)CNC(=O)OCc1ccccc1)C(=O)NO`: the pKi was determined as 3.6. With `CC(C)CC(NC(CCNC(=O)C(Cc1ccccc1)NC(=O)OCc1ccccc1)C(=O)O)C(=O)NC(Cc1c[nH]c2ccccc12)C(=O)O` (configuration not stated), the Ki was 0.011 µM. That is a double-digit nanomolar value. On to `CC(C)CC(OP(=O)(O)C(C)NC(=O)OCc1ccccc1)C(=O)NC(C)C(=O)O` (configuration not stated), for which the Ki is 1.82 µM.
